# Assay results: ChEMBL document CHEMBL3286266, “Development of novel benzomorpholine class of diacylglycerol acyltransferase I inhibitors” (ACS Med Chem Lett, 2014)
# Columns and labels:
# [1] = molecular target: T1, Diacylglycerol O-acyltransferase 1 (Mus musculus, UniProt Q9Z2A7); experiment: Inhibition of mouse DGAT1 expressed in Sf9 insect cells using 1,2-dioleoyl-sn-glycerol and [14C]-palmitoyl-CoA substrate by scintillation counting analysis
# T1 sequence (Q9Z2A7 whole entry): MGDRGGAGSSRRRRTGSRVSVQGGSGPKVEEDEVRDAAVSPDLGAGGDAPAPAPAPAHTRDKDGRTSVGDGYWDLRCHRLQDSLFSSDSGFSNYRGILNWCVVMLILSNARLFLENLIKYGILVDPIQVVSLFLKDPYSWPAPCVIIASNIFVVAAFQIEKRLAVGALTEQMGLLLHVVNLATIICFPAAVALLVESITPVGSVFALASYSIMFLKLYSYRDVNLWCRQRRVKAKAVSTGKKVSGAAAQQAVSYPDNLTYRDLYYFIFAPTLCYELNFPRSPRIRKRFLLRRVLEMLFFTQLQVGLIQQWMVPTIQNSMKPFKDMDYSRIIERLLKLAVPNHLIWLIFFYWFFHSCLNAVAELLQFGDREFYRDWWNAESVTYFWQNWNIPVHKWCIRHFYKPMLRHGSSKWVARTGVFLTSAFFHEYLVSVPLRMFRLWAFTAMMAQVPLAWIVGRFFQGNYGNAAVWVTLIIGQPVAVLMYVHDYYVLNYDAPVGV
# Mus musculus [2] = experiment: Reduction in triglycerides level in mouse at 10 mg/kg, po after 2 hrs by postprandial triglyceride assay; assay type: functional
# [3] = molecular target: T2, Diacylglycerol O-acyltransferase 1 (Homo sapiens, UniProt O75907); experiment: Inhibition of human DGAT1 expressed in Sf9 insect cells using 1,2-dioleoyl-sn-glycerol and [14C]-palmitoyl-CoA substrate by scintillation counting analysis
# T2 sequence (O75907 whole entry): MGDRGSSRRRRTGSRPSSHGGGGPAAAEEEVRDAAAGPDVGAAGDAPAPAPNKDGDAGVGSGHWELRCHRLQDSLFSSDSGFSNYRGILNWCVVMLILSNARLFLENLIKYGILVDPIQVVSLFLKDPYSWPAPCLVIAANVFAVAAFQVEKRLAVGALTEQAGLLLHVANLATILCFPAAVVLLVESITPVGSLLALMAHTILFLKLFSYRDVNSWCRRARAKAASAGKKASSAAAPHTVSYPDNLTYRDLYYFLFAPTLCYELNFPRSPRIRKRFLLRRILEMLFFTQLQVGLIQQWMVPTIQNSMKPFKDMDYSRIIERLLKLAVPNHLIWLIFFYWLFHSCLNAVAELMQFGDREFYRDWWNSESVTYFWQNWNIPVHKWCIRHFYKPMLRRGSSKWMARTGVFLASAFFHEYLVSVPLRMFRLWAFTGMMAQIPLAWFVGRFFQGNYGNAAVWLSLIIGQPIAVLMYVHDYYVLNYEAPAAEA
# [4] = molecular target: T3, Sterol O-acyltransferase 2 (Homo sapiens, UniProt O75908); experiment: Inhibition of human ACAT2 expressed in Sf9 insect cells using [14C]-oleoyl-CoA by scintillation counting analysis
# T3 sequence (O75908 whole entry): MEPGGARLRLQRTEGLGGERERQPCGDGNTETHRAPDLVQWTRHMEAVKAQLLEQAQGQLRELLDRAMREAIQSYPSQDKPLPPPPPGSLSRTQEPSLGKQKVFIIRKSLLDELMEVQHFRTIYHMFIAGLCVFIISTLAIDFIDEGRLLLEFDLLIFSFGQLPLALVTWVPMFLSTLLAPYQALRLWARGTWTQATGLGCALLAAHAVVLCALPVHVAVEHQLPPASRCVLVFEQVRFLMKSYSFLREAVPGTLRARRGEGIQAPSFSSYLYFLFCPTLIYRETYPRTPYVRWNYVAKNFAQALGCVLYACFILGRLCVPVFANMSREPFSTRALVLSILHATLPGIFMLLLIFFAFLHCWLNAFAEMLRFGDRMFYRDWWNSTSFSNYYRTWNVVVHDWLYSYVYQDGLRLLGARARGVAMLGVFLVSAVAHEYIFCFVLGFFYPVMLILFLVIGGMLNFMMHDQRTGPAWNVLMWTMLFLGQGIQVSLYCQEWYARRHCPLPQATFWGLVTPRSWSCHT
# [5] = AUC in mouse at 10 mg/kg; assay type: ADME, organism-based; set-up: dose 10 mg/kg; conditions: plasma
# Mus musculus [6] = experiment: Reduction in triglycerides level in mouse at 3 mg/kg, po after 2 hrs by postprandial triglyceride assay; assay type: functional
# Homo sapiens [7] = species on record: Homo sapiens; experiment: Selectivity for human DGAT1 over human DGAT2
# Homo sapiens [8] = species on record: Homo sapiens; experiment: Selectivity for human DGAT1 over human ACAT
# [9] = Permeability in human Caco2 cells; assay type: ADME, cell-based; conditions: Caco-2, read-out: permeability
# [10] = Solubility of the compound; assay type: physicochemical
# [11] = Clearance in rat liver hepatocytes measured per million cells; assay type: ADME, cell-based, Hepatocyte; conditions: read-out: CLH
# [12] = Clearance in human liver hepatocytes measured per million cells; assay type: ADME, cell-based, Hepatocyte; conditions: read-out: CLH
# CYP1A1 = molecular target: T4, CYP1A1 (Homo sapiens, UniProt P04798); experiment: Induction of CYP1A1 (unknown origin) at 30 uM relative to control; assay type: ADME; conditions: read-out: FC
# T4 sequence (P04798 whole entry): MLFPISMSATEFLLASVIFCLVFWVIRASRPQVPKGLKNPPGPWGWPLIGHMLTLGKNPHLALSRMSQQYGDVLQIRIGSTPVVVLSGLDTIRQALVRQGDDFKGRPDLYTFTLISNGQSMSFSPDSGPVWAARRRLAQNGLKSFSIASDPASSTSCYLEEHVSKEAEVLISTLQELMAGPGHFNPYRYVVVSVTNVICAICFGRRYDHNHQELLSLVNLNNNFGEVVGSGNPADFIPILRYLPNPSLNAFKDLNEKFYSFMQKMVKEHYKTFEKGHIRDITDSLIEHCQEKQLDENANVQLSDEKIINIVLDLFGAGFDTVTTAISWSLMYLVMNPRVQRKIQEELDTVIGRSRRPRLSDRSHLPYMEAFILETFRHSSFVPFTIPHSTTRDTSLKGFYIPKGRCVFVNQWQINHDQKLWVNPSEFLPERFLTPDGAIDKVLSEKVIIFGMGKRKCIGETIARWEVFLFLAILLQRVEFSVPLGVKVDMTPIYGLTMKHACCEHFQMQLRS
SMILES,IC50 [1] [nM],IC50 [3] [nM],other results
O=C(O)C[C@H]1CC[C@H](c2ccc(-c3ccc4c(c3)OCCN4C(=O)NCc3ccccc3)cc2)CC1,110,,
O=C(O)C[C@H]1CC[C@H](c2ccc(-c3ccc4c(c3)OCCN4C(=O)NCCCCc3ccccc3)cc2)CC1,36,,inhibition in vivo at 10 mg/kg (Mus musculus [2]): 23%
Nc1ccccc1NC(=O)N1CCOc2cc(-c3ccc([C@H]4CC[C@H](CC(=O)O)CC4)cc3)ccc21,5200,,
O=C(C[C@H]1CC[C@H](c2ccc(-c3ccc4c(c3)OCCN4C(=O)Nc3ccccc3)cc2)CC1)NO,920,,
CC(C)c1ccccc1NC(=O)N1CCOc2cc(-c3ccc([C@H]4CC[C@H](CC(=O)O)CC4)cc3)ccc21,69,,
O=C(O)C[C@H]1CC[C@H](c2ccc(-c3cccc4c3OCCN4C(=O)Nc3ccccc3)cc2)CC1,> 10000,> 10000,
CCC1CN(C(=O)Nc2ccccc2)c2ccc(-c3ccc(OC[C@H]4C[C@@H]4C(=O)O)nc3)cc2O1 (relative stereo),210,,
CC1Oc2cc(-c3ccc([C@H]4CC[C@H](CC(=O)O)CC4)cc3)ccc2N(C(=O)Nc2ccccc2)C1=O (stereo partly specified),> 10000,> 10000,
CC1CN(C(=O)Nc2ccccc2)c2ccc(-c3ccc([C@H]4CC[C@H](CC(=O)O)CC4)cc3)cc2O1 (stereo partly specified),33,91,inhibition in vivo at 10 mg/kg (Mus musculus [2]): 85%; IC50 [4]: 5000 nM; AUC [5]: 79 µM·h
O=C(O)[C@@H]1CCC[C@H]1C(=O)c1ccc(-c2ccc3c(c2)OCCN3C(=O)Nc2ccccc2)cc1,830,,
O=C(O)C[C@H]1CC[C@H](c2ccc(-c3ccc4c(c3)OCCN4C(=O)Nc3ccccc3C(F)(F)F)cc2)CC1,16,,
CC1COc2cc(-c3ccc([C@H]4CC[C@H](CC(=O)O)CC4)cc3)ccc2N1C(=O)Nc1ccccc1 (stereo partly specified),630,,
O=C(O)C[C@H]1CC[C@H](c2ccc(-c3ccc4c(c3)OCCN4S(=O)(=O)Cc3ccccc3)cc2)CC1,> 10000,> 10000,
CCCC1CN(C(=O)Nc2ccccc2)c2ccc(-c3ccc([C@H]4CC[C@H](CC(=O)O)CC4)cc3)cc2O1 (stereo partly specified),160,,
CCc1ccccc1NC(=O)N1C[C@H](C)Oc2cc(-c3ccc([C@H]4CC[C@H](CC(=O)O)CC4)cc3)ccc21,53,85,inhibition in vivo at 3 mg/kg (Mus musculus [6]): 46%
CCc1ccccc1NC(=O)N1CCOc2cc(-c3ccc([C@H]4CC[C@H](CC(=O)O)CC4)cc3)ccc21,37,,
O=C(O)C[C@H]1CC[C@H](c2ccc(-c3cnc4c(c3)OCCN4C(=O)Nc3ccccc3)cc2)CC1,> 10000,> 10000,
C[C@H]1CN(C(=O)Nc2ccccc2)c2ccc(-c3ccc([C@H]4CC[C@H](CC(=O)O)CC4)cc3)cc2O1,360,530,
CC(C)C1CN(C(=O)Nc2ccccc2)c2ccc(-c3ccc([C@H]4CC[C@H](CC(=O)O)CC4)cc3)cc2O1 (stereo partly specified),300,,

SMILES,IC50 [1] [nM],IC50 [3] [nM],other results
O=C(O)C[C@H]1CC[C@H](c2ccc(-c3ccc4c(c3)N(C(=O)Nc3ccccc3)CCO4)cc2)CC1,> 10000,> 10000,
CCC1CN(C(=O)Nc2ccccc2)c2ccc(-c3cnc(OCC(C)(C)C(=O)O)nc3)cc2O1 (stereo unspecified),310,,
O=C(O)C[C@H]1CC[C@@H](c2ccc(-c3ccc4c(c3)OCCN4C(=O)Nc3ccccc3)cc2)CC1,45,52,inhibition in vivo at 3 mg/kg (Mus musculus [6]): 2%
CCOc1ccc(NC(=O)N2CCOc3cc(-c4ccc([C@H]5CC[C@H](CC(=O)O)CC5)cc4)ccc32)cc1,34,,
O=C(O)C[C@H]1CC[C@H](c2ccc(-c3ccc4c(n3)OCCN4C(=O)Nc3ccccc3)cc2)CC1,550,,
O=C(O)C[C@H]1CC[C@H](c2ccc(-c3ccc4c(c3)OCCN4C(=O)Nc3cc(C(F)(F)F)ccc3F)cc2)CC1,1200,,
CCC1CN(C(=O)Nc2ccccc2)c2ccc(-c3ccc(OCC4(C(=O)O)CC4)nc3)cc2O1 (stereo unspecified),90,,
O=C(O)C[C@H]1CC[C@H](c2ccc(-c3ccc4c(c3)OCCN4C(=O)Nc3ccccc3C(=O)O)cc2)CC1,> 10000,> 10000,
CCC1CN(C(=O)Nc2ccccc2)c2ccc(-c3ccc(OCC4(C(=O)O)CCC4)nc3)cc2O1 (stereo unspecified),110,,
O=C(Nc1ccccc1)N1CCOc2cc(-c3ccc([C@H]4CC[C@H](Cc5nnn[nH]5)CC4)cc3)ccc21,170,,inhibition in vivo at 10 mg/kg (Mus musculus [2]): 9%
CC(C(=O)O)[C@H]1CC[C@H](c2ccc(-c3ccc4c(c3)OCCN4C(=O)Nc3ccccc3)cc2)CC1 (stereo partly specified),200,,
CCc1ccccc1NC(=O)N1CC(C)Oc2cc(-c3ccc([C@H]4CC[C@H](CC(=O)O)CC4)cc3)ccc21 (stereo partly specified),50,110,inhibition in vivo at 3 mg/kg (Mus musculus [6]): 92%
O=C(O)C[C@H]1CC[C@H](c2ccc(-c3ccc4c(c3)OCCN4C(=O)Cc3ccccc3)cc2)CC1,110,,
O=C(O)C[C@H]1CC[C@H](c2ccc(-c3ccc4c(c3)OCCN4C(=O)NC3CCCCC3)cc2)CC1,160,,
O=C(O)C[C@H]1CC[C@H](c2ccc(-c3ccc4c(c3)OCCN4c3nc4ccccc4o3)cc2)CC1,> 10000,> 10000,
CCC1CN(C(=O)Nc2ccccc2)c2ccc(-c3ccc([C@H]4CC[C@H](CC(=O)O)CC4)cc3)cc2O1 (stereo partly specified),45,,inhibition in vivo at 10 mg/kg (Mus musculus [2]): 88%; AUC [5]: 63 µM·h
O=C(O)C[C@H]1CC[C@H](c2ccc(-c3ccc4c(ccn4C(=O)Nc4ccccc4)c3)cc2)CC1,,,Selectivity ratio (Homo sapiens [7]): 100; Selectivity ratio (Homo sapiens [8]): 100; Papp [9]: 17 ×10⁻⁶ cm/s; solubility [10]: 20 µM; hepatocyte CLint [11]: 3.9 µL/min/1e6 cells; hepatocyte CLint [12]: 7.6 µL/min/1e6 cells; fold induction at 30 µM (CYP1A1): 3; inhibition in vivo at 10 mg/kg (Mus musculus [2]): 45%
CS(=O)(=O)NC(=O)C[C@H]1CC[C@H](c2ccc(-c3ccc4c(c3)OCCN4C(=O)Nc3ccccc3)cc2)CC1,7300,,
